In patent publication US7230001B1, “Arylalkane, arylalkene and aryl azaalkane, medicaments containing said compounds and method for the production thereof” (Boehringer Ingelheim Pharma GmbH & Co. KG, priority 1999, dated 2007):

| SMILES | melting point |
| --- | --- |
| O=C(CCC(=O)N1CCC(N2Cc3ccccc3NC2=O)CC1)c1ccc(-c2ccccc2)cc1 [compound 62, 3-{1-[4-(4-biphenylyl)-1,4-dioxobutyl]-4-piperidinyl}-3,4-dihydro-2(1H)-quinazolinone] | 200 °C |
| CC(=O)Nc1ccc(C(=O)CCC(=O)N2CCC(n3cc(-c4ccccc4)[nH]c3=O)CC2)cc1Br [compound 21, 1-{1-[4-(4-acetylamino-3-bromophenyl)-1,4-dioxobutyl]-4-piperidinyl}-1,3-dihydro-4-phenyl-2(2H)-imidazolone] | 243 °C |
| CC(=O)Nc1ccc(C(=O)CCC(=O)N2CCC(n3c(=O)[nH]c4ccccc43)CC2)cc1Br [compound 19, 1-{1-[4-(4-acetylamino-3-bromophenyl)-1,4-dioxobutyl]-4-piperidinyl}-1,3-dihydro-2(2H)-benzimidazolone] | 128 °C |
| CC(=O)Nc1ccc(C(=O)CCC(=O)N2CCC(N3Cc4ccccc4NC3=O)CC2)cc1Br [compound 18, 3-{1-[4-(4-acetylamino-3-bromophenyl)-1,4-dioxobutyl]-4-piperidinyl}-3,4-dihydro-2(1H)-quinazolinone] | 243 °C |
| COc1ccccc1C(=O)CCC(=O)N1CCC(N2Cc3ccccc3NC2=O)CC1 [compound 66, 3-{1-[1,4-dioxo-4-(2-methoxyphenyl)butyl]-4-piperidinyl}-3,4-dihydro-2(1H)-quinazolinone] | 174 to 175 °C |
| CNc1ccc(C(=O)CCC(=O)N2CCC(N3Cc4ccccc4NC3=O)CC2)cc1[N+](=O)[O-] [compound 27, 3,4-dihydro-3-{1-[1,4-dioxo-4-(4-methylamino-3-nitrophenyl)butyl]-4-piperidinyl}-2(1H)-quinazolinone] | 258 to 259 °C (dec.) |
| O=C(CCC(=O)N1CCC(N2Cc3ccccc3NC2=O)CC1)c1ccc(Cl)cc1 [compound 26, 3,4-dihydro-3-{1-[4-(4-chlorophenyl)-1,4-dioxobutyl]-4-piperidinyl}-2(1H)-quinazolinone] | 237 to 238 °C |
| N#Cc1ccc(C(=O)CCC(=O)N2CCC(N3Cc4ccccc4NC3=O)CC2)cc1 [compound 72, 3-{1-[4-(4-cyanophenyl)-1,4-dioxobutyl]-4-piperidinyl}-3,4-dihydro-2(1H)-quinazolinone] | 191 to 193 °C |
| O=C(CCC(=O)N1CCC(N2Cc3ccccc3NC2=O)CC1)c1ccc(F)cc1 [compound 67, 3-{1-[1,4-dioxo-4-(4-fluorophenyl)butyl]-4-piperidinyl}-3,4-dihydro-2(1H)-quinazolinone] | 164 to 166 °C |
| O=C(CCC(=O)N1CCC(N2Cc3ccccc3NC2=O)CC1)c1ccc(Cl)c([N+](=O)[O-])c1 [compound 28, 3,4-dihydro-3-{1-[4-(4-chloro-3-nitrophenyl)-1,4-dioxo-butyl]-4-piperidinyl}-2(1H)-quinazolinone] | 207 to 209 °C |
| Nc1c(Br)cc(CCCC(=O)N2CCC(n3cc(-c4ccccc4)[nH]c3=O)CC2)cc1Br [compound 64, 1-{1-[4-(4-amino-3,5-dibromophenyl)-1-oxobutyl]-4-piperidinyl}-1,3-dihydro-4-phenyl-2(2H)-imidazolone] | 162.5 to 163.5 °C |
| COc1ccc(C(=O)CCC(=O)N2CCC(N3Cc4ccccc4NC3=O)CC2)cc1 [compound 25, 3,4-dihydro-3-{1-[1,4-dioxo-4-(4-methoxyphenyl)butyl]-4-piperidinyl}-2(1H)-quinazolinone] | 171 to 172 °C |

Next, values leading:

| melting point | SMILES |
| --- | --- |
| 272 to 274 °C (dec.) | Nc1c(Br)cc(C(=O)CCC(=O)N2CCN(c3cc4ccccc4[nH]c3=O)CC2)cc1Br [compound 59, 3-{1-[4-(4-amino-3,5-dibromophenyl)-1,4-dioxobutyl]-4-piperazinyl}-2(1H)-quinolinone] |
| > 250 °C | Nc1c(Br)cc(C(=O)CCC(=O)N2CCC(N3Cc4ccncc4NC3=O)CC2)cc1Br [compound 42, 3-{1-[4-(4-amino-3,5-dibromophenyl)-1,4-dioxobutyl]-4-piperidinyl}-3,4-dihydro-2(1H)-pyrido[3,4-d]pyrimidinone] |
| 256 to 258 °C | COc1cc2c(cc1OC)NC(=O)N(C1CCN(C(=O)CCC(=O)c3cc(Br)c(N)c(Br)c3)CC1)C2 [compound 29, 3-{1-[4-(4-amino-3,5-dibromophenyl)-1,4-dioxobutyl]-4-piperidinyl}-3,4-dihydro-6,7-dimethoxy-2(1H)-quinazolinone] |
| > 225 °C | Nc1c(Br)cc(C(=O)CCC(=O)N2CCC(N3Cc4cccnc4NC3=O)CC2)cc1Br [compound 13, 3-{1-[4-(4-amino-3,5-dibromophenyl)-1,4-dioxobutyl]-4-piperidinyl}-3,4-dihydro-2(1H)-pyrido[2,3-d]pyrimidinone] |
| 246 to 252 °C | Nc1c(Br)cc(C(=O)CCC(=O)N2CCN(c3nc4ccccc4[nH]c3=O)CC2)cc1Br [compound 61, 3-{1-[4-(4-amino-3,5-dibromophenyl)-1,4-dioxobutyl]-4-piperazinyl}-2(1H)-quinoxalinone] |
| > 250 °C | Nc1c(Br)cc(C(=O)CCC(=O)N2CCC(N3Cc4cnccc4NC3=O)CC2)cc1Br [compound 43, 3-{1-[4-(4-amino-3,5-dibromophenyl)-1,4-dioxobutyl]-4-piperidinyl}-3,4-dihydro-2(1H)-pyrido[4,3-d]pyrimidinone] |
| 212 to 214 °C | O=C(CCC(=O)N1CCC(N2Cc3ccccc3NC2=O)CC1)c1cc(Br)cc(Br)c1 [compound 65, 3-{1-[4-(3,5-dibromophenyl)-1,4-dioxobutyl]-4-piperidinyl}-3,4-dihydro-2(1H)-quinazolinone] |
| 267 °C | Nc1ccc(C(=O)CCC(=O)N2CCC(n3cc(-c4ccccc4)[nH]c3=O)CC2)cc1Br [compound 24, 1-{1-[4-(4-amino-3-bromophenyl)-1,4-dioxobutyl]-4-piperidinyl}-1,3-dihydro-4-phenyl-2(2H)-imidazolone] |
